Reference: ChEMBL document CHEMBL5370623, “Discovery of Quinazoline-2,4(1H,3H)-dione Derivatives Containing a Piperizinone Moiety as Potent PARP-1/2 Inhibitors─Design, Synthesis, In Vivo Antitumor Activity, and X-ray Crystal Structure Analysis” (J Med Chem, 2023)

Assays:
[1] = Tmax in BALB/c mouse at 25 mg/kg, po measured upto 24 hrs by LC-MS/MS analysis; format: ADME, organism-based; details: in vivo
[2] = target: T1, Poly [ADP-ribose] polymerase 1 (Homo sapiens, UniProt P09874); assay: Inhibition of human recombinant PARP1 expressed in Escherichia coli BL21(DE3) incubated for 1 hr by ELISA assay
[3] = target: T2, Poly [ADP-ribose] polymerase 2 (Homo sapiens, UniProt Q9UGN5); assay: Inhibition of human recombinant PARP2 expressed in Escherichia coli BL21(DE3) incubated for 1 hr by ELISA assay
[4] = Aqueous solubility of the compound; format: physicochemical
[5] = target: T1, Poly [ADP-ribose] polymerase 1; assay: Inhibition of human recombinant N-terminal GST-tagged PARP1 (2 to 1014(end) residues) expressed in Sf9 cells
[6] = target: Protein mono-ADP-ribosyltransferase PARP3 (Homo sapiens, UniProt Q9Y6F1); assay: Inhibition of human recombinant N-terminal GST-tagged PARP3 (2 to 540(end) residues) expressed in Sf9 cells
[7] = target: Protein mono-ADP-ribosyltransferase PARP6 (Homo sapiens, UniProt Q2NL67); assay: Inhibition of human recombinant N-terminal GST-tagged PARP6 (1 to 630(end) residues) expressed in Sf9 cells
[8] = target: Protein mono-ADP-ribosyltransferase TIPARP (Homo sapiens, UniProt Q7Z3E1); assay: Inhibition of human recombinant N-terminal FLAG-tagged PARP7 (400 to 657(end) residues) expressed in Sf9 cells
[9] = target: Protein mono-ADP-ribosyltransferase PARP8 (Homo sapiens, UniProt Q8N3A8); assay: Inhibition of PARP8 (unknown origin)
[10] = Binding affinity to cat PARP1 assessed as dissociation constant by SPR assay; set-up: species or system Felis catus
[11] = Binding affinity to cat PARP2 assessed as dissociation constant by SPR assay; set-up: species or system Felis catus
MDA-MB-436 [12] = assay: Antitumor activity against BRCAl-deficient human MDA-MB-436 cells xenografted in Balb/c athymic nude mouse assessed as tumor growth inhibition at 1.1 mg/kg, po qd measured after 23 days; format: functional; details: MDA-MB-436, 552 h, time 23 day, read-out: TGI
MDA-MB-436 [13] = assay: Antitumor activity against BRCAl-deficient human MDA-MB-436 cells xenografted in Balb/c athymic nude mouse assessed as tumor growth inhibition at 3.3 mg/kg, po qd measured after 23 days; format: functional; details: MDA-MB-436, 552 h, time 23 day, read-out: TGI
MDA-MB-436 [14] = assay: Antitumor activity against BRCAl-deficient human MDA-MB-436 cells xenografted in Balb/c athymic nude mouse assessed as tumor growth inhibition at 10 mg/kg, po qd measured after 23 days; format: functional; details: MDA-MB-436, 552 h, time 23 day, read-out: TGI
[15] = Toxicity in Balb/c athymic nude mouse xenografted with BRCAl-deficient human MDA-MB-436 cells assessed as change in body weight at 1.1 to 10 mg/kg, po qd measured after 23 days; format: organism-based; details: in vivo, 552 h, dose 1.1-10 mg/kg, time 23 day
DU-145 [16] = assay: Antitumor activity against PTEN-deficient human DU-145 cells xenografted in Balb/c athymic nude mouse assessed as tumor growth inhibition at 5 mg/kg, po qd measured after 14 days; format: functional; details: DU-145, 336 h, time 14 day, read-out: TGI
DU-145 [17] = assay: Antitumor activity against PTEN-deficient human DU-145 cells xenografted in Balb/c athymic nude mouse assessed as tumor growth inhibition at 10 mg/kg, po qd measured after 14 days; format: functional; details: DU-145, 336 h, time 14 day, read-out: TGI
DU-145 [18] = assay: Antitumor activity against PTEN-deficient human DU-145 cells xenografted in Balb/c athymic nude mouse assessed as tumor growth inhibition at 20 mg/kg, po qd measured after 14 days; format: functional; details: DU-145, 336 h, time 14 day, read-out: TGI
[19] = Toxicity in Balb/c athymic nude mouse xenografted with PTEN-deficient human DU145 cells assessed as change in body weight at 5 to 20 mg/kg, po qd measured after 14 days; format: organism-based, DU-145; details: in vivo, 336 h, dose 5-20 mg/kg, time 14 day
MC-38 = assay: Antitumor activity against mouse MC38 cells implanted in C57BL/6 mouse assessed as tumor growth inhibition at 10 mg/kg, po qd measured after 17 days; format: functional; details: MC-38, 408 h, time 17 day, read-out: TGI
[20] = Toxicity in C57BL/6 mouse implanted with mouse MC38 cells assessed as change in body weight at 10 mg/kg, po qd measured after 17 days; format: organism-based, MC-38; details: in vivo, 408 h, time 17 day
[21] = Half life in BALB/c mouse at 25 mg/kg, po measured upto 24 hrs by LC-MS/MS analysis; format: ADME, organism-based; details: in vivo
[22] = Half life in BALB/c mouse at 2.5 mg/kg, iv measured upto 24 hrs by LC-MS/MS analysis; format: ADME, organism-based; details: in vivo
[23] = Tmax in BALB/c mouse at 2.5 mg/kg, iv measured upto 24 hrs by LC-MS/MS analysis; format: ADME, organism-based; details: in vivo
[24] = Cmax in BALB/c mouse at 25 mg/kg, po measured upto 24 hrs by LC-MS/MS analysis; format: ADME, organism-based; set-up: time < 24 hrs, dose 25 mg/kg, route po; details: in vivo
[25] = Cmax in BALB/c mouse at 2.5 mg/kg, iv measured upto 24 hrs by LC-MS/MS analysis; format: ADME, organism-based; set-up: time < 24 hrs, dose 2.5 mg/kg, route iv; details: in vivo
[26] = AUC (0 to t) in BALB/c mouse at 25 mg/kg, po measured upto 24 hrs by LC-MS/MS analysis; format: ADME, organism-based; set-up: time < 24 hrs, dose 25 mg/kg, route po; details: in vivo
[27] = AUC (0 to t) in BALB/c mouse at 2.5 mg/kg, iv measured upto 24 hrs by LC-MS/MS analysis; format: ADME, organism-based; set-up: time < 24 hrs, dose 2.5 mg/kg, route iv; details: in vivo
[28] = AUC (0 to infinity) in BALB/c mouse at 25 mg/kg, po measured upto 24 hrs by LC-MS/MS analysis; format: ADME, organism-based; set-up: dose 25 mg/kg, time < 24 hrs, route po; details: in vivo
[29] = AUC (0 to infinity) in BALB/c mouse at 2.5 mg/kg, iv measured upto 24 hrs by LC-MS/MS analysis; format: ADME, organism-based; set-up: dose 2.5 mg/kg, time < 24 hrs, route iv; details: in vivo
[30] = MRT (0 to t) in BALB/c mouse at 25 mg/kg, po measured upto 24 hrs by LC-MS/MS analysis; format: ADME, organism-based; details: in vivo
[31] = MRT (0 to t) in BALB/c mouse at 2.5 mg/kg, iv measured upto 24 hrs by LC-MS/MS analysis; format: ADME, organism-based; details: in vivo
[32] = MRT (0 to infinity) in BALB/c mouse at 25 mg/kg, po measured upto 24 hrs by LC-MS/MS analysis; format: ADME, organism-based; details: in vivo
[33] = MRT (0 to infinity) in BALB/c mouse at 2.5 mg/kg, iv measured upto 24 hrs by LC-MS/MS analysis; format: ADME, organism-based; details: in vivo
[34] = Oral bioavailability in BALB/c mouse at 25 mg/kg measured upto 24 hrs by LC-MS/MS analysis; format: ADME, organism-based; details: in vivo
[35] = target: T2, Poly [ADP-ribose] polymerase 2
Description: Inhibition of human recombinant N-terminal GST-tagged PARP2 (2 to 583(end) residues) expressed in Sf9 cells

T1 sequence (P09874 whole entry): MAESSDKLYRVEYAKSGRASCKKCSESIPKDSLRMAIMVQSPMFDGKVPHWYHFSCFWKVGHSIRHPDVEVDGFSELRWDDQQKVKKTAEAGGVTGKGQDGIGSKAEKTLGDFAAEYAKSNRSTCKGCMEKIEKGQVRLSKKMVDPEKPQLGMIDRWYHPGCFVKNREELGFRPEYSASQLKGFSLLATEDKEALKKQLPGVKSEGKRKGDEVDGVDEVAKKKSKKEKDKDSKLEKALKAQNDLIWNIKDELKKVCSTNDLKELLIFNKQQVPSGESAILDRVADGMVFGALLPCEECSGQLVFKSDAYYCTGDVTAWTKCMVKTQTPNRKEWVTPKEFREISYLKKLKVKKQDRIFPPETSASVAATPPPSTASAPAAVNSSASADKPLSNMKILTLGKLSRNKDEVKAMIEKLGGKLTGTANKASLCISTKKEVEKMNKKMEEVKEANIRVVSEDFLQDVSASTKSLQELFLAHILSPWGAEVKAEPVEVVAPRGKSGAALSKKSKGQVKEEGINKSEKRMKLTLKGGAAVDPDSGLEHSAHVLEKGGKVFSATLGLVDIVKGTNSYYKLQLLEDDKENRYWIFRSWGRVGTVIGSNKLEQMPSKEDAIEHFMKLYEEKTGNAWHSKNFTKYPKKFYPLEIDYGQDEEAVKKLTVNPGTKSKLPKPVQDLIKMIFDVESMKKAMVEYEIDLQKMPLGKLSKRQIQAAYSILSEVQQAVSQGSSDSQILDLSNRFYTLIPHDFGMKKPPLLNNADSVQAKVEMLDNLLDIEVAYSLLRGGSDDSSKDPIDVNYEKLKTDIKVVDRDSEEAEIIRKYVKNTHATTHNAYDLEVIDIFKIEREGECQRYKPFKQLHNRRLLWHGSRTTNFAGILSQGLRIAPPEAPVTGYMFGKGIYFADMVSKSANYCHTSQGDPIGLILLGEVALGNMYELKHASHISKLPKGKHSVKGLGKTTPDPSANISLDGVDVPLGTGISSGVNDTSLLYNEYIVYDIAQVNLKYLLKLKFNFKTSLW
T2 sequence (Q9UGN5 whole entry): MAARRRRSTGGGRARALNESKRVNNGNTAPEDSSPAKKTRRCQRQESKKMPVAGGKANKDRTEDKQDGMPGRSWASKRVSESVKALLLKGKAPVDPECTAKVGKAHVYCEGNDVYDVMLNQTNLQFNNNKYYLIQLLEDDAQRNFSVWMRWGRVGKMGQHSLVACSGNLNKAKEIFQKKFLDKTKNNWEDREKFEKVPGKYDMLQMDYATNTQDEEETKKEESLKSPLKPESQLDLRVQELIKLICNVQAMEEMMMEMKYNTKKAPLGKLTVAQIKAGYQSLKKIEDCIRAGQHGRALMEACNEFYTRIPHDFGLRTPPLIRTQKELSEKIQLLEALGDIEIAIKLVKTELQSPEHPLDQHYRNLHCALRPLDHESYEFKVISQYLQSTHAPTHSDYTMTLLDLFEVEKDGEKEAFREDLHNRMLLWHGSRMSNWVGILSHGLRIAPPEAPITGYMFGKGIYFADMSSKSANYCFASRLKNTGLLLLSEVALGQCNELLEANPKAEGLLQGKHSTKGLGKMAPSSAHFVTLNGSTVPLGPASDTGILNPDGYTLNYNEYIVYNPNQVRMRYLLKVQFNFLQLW
Chain of Protein mono-ADP-ribosyltransferase PARP8 (Q8N3A8 whole entry): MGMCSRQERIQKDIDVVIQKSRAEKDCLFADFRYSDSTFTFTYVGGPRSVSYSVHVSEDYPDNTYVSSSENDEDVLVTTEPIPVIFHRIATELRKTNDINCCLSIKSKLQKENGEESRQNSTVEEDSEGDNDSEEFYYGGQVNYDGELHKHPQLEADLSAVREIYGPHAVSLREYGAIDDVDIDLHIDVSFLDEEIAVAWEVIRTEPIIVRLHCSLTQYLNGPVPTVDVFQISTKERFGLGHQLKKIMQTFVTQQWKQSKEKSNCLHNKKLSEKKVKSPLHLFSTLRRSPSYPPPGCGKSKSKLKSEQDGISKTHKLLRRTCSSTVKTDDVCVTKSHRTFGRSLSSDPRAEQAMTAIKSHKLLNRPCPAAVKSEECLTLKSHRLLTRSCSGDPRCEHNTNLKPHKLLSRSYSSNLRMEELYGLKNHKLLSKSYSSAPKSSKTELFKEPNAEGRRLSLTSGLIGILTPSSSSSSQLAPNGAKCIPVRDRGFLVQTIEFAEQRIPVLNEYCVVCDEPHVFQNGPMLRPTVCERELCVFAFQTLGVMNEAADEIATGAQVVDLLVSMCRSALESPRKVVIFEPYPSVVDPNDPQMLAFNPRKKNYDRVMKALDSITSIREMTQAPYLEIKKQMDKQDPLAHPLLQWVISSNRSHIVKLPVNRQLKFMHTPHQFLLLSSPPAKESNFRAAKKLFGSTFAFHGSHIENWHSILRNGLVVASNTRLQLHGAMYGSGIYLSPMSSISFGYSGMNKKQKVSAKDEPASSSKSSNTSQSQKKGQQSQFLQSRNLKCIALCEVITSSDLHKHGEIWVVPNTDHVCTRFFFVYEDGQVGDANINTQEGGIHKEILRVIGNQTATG
Chain of Protein mono-ADP-ribosyltransferase TIPARP (Q7Z3E1 whole entry): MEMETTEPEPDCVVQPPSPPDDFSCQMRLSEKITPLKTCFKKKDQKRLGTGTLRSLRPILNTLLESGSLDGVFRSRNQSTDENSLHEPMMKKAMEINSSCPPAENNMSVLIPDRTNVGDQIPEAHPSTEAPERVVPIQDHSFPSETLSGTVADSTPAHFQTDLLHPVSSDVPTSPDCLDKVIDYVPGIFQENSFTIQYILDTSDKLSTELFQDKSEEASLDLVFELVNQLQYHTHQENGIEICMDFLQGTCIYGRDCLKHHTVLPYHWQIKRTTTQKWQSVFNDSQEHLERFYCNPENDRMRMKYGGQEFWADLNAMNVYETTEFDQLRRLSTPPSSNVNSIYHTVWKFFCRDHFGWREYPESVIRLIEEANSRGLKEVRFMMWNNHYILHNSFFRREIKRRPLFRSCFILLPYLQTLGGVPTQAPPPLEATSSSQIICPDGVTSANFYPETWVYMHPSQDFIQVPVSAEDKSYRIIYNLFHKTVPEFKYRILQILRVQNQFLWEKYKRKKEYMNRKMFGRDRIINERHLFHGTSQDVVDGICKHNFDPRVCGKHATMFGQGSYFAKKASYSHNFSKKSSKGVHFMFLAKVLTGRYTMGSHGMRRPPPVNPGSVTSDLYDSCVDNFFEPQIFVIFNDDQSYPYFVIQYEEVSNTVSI
Chain of Protein mono-ADP-ribosyltransferase PARP3 (Q9Y6F1 whole entry): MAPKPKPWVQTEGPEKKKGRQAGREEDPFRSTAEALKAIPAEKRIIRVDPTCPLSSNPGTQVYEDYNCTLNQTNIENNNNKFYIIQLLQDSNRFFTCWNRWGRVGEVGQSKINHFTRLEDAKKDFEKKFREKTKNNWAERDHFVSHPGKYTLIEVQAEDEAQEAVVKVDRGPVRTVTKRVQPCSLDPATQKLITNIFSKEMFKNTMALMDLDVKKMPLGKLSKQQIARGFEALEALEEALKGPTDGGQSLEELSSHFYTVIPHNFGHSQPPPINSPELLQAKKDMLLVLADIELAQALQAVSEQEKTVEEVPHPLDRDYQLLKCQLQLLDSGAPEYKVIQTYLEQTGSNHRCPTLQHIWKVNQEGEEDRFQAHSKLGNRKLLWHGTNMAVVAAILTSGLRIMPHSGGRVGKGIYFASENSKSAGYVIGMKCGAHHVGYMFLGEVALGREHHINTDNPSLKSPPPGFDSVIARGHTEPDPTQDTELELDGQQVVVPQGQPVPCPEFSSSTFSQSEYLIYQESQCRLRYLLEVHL
Chain of Protein mono-ADP-ribosyltransferase PARP6 (Q2NL67 whole entry): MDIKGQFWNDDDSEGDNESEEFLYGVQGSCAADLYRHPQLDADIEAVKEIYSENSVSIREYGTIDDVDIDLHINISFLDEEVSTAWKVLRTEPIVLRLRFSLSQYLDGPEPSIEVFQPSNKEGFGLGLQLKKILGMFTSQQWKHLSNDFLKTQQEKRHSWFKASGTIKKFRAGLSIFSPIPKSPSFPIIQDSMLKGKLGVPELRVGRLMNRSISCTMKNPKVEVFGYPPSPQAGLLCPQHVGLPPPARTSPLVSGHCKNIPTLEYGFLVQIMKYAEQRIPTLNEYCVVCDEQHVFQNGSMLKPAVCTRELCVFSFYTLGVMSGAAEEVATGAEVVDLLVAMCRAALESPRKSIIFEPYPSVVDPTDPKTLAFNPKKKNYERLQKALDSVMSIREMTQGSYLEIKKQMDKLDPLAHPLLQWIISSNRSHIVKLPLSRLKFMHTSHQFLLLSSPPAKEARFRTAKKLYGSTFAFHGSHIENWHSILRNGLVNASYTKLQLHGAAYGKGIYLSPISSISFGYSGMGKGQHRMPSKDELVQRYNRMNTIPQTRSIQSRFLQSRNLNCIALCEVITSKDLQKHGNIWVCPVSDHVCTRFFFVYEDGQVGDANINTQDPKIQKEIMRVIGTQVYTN

Tmax [1]: 4.8 min
IC50 [2]: 0.94 nM
IC50 [3]: 0.87 nM
solubility [4]: 223 µg/mL
IC50 [5]: 0.94 nM
IC50 [6]: 51 nM
IC50 [7]: ~280 nM
IC50 [8]: 0.21 nM
IC50 [9]: 13 nM
Kd [10]: 0.83 nM
Kd [11]: 0.75 nM
half-life [21]: 16.2 min
half-life [22]: 7.8 min
Tmax [23]: 1.8 min
Cmax [24]: 1540 ng/mL
Cmax [25]: 2430 ng/mL
AUC(0-t) at 24 h [26]: 612 ng·h/mL
AUC(0-t) at 24 h [27]: 417 ng·h/mL
AUC(0-inf) [28]: 617 ng·h/mL
AUC(0-inf) [29]: 419 ng·h/mL
MRT last at 24 h [30]: 18.6 min
MRT last at 24 h [31]: 7.8 min
MRT inf [32]: 19.2 min
MRT inf [33]: 7.8 min
bioavailability [34]: 14.7%
IC50 [35]: 0.87 nM
SMILES: CCC(CC)N1CCN(C(=O)c2cc(Cn3c(=O)[n-]c(=O)c4ccccc43)ccc2F)CC1=O.[Na+]
inhibition in vivo at 1.1 mg/kg (MDA-MB-436 [12]): 54.6%
inhibition in vivo at 3.3 mg/kg (MDA-MB-436 [13]): 84.9%
inhibition in vivo at 10 mg/kg (MDA-MB-436 [14]): 94.3%
Activity [15]: Non-Toxic
inhibition in vivo at 5 mg/kg (DU-145 [16]): 69.2%
inhibition in vivo at 10 mg/kg (DU-145 [17]): 87%
inhibition in vivo at 20 mg/kg (DU-145 [18]): 91.2%
Activity [19]: Non-Toxic
inhibition in vivo at 10 mg/kg (MC-38): 57.3%
Activity [20]: Non-Toxic
